{
  "source": "patent US20250327794A1",
  "about": "“FLUOROMETRIC METHODS FOR DETECTION OF ALLERGIC SENSITIVITY TO ENVIRONMENTAL, FOODSTUFF, AND MEDICAMENT STIMULANTS” (CELL SCIENCE SYSTEMS CORPORATION, priority 2022, published 2025)",
  "assay_type_in_all_cases": "cell-based, human",
  "key": {"white blood cells": {"system": "white blood cells", "test": "Propidium iodide (PI) staining by flow cytometry, channel 3 FL3-A", "procedure": "Cell viability determination using DNA staining was incorporated to improve flow cytometry analysis of granulocyte subpopulations. […] Throughout Example 2, additional exogenous stimulants were tested for their ability to instigate granulocyte release of ROS.\nFlow cytometry analysis of human blood samples was performed following exposure to exogenous dust mite (“DM”) stimulant using time course measurements of RH 123 and PI fluorescence. Density plots and histograms were determined for samples containing: control cells only, DHR 123 only, DHR 123+PMA stimulant (positive control), DHR 123+DM stimulant, and DHR 123+3× DM stimulant, following incubation times of 0.5 hours (FIGS. 9A-9J), 1.5 hours (FIGS. 10A-10J), and 2.5 hours (FIGS. 11A-11J), respectively. Propidium iodide staining was used as a measure of cell viability.\nFlow cytometry analysis of human blood samples was performed following exposure to exogenous DM, ragweed pollen (RWP), milk (MLK), cucumber (CUC), and basil (BAS) stimulants using RH 123 and PI fluorescence measurement. Density plots and histograms were determined for samples containing: control cells, DHR 123 only, DHR 123+PMA stimulant, DHR 123+DM stimulant, DHR 123+RWP stimulant (1×: 2.5 μL; 2×: 5.0 μL), DHR 123+MLK stimulant (5 μL), DHR 123+CUC stimulant (5 μL), and DHR 123+BAS stimulant (5 μL), following an incubation times of 0.5, 1.5, and 2.5 hours. See RH 123 (FL1-A) density plots at FIGS. 13A-13H; RH 123 (FL1-A) histograms at FIGS. 14A-14H; propidium iodide (PI) (FL3-A) density plots at FIGS. 15A-15H; PI (FL3-A) histograms at FIGS. 16A-16H).\nDHR 123 and PI flow cytometry blood testing was repeated using increased amounts of stimulant (8 μL of DM stimulant or RWP stimulant per 100 μL blood) and incubated for 2.5 hours."}, "neutrophils": {"system": "neutrophils", "test": "Neutrophil activation: CD16 surface marker fluorescence (channel 2 FL2-A)", "excerpt": "Dead cells were gated and removed using PI(+) viability marker. The cell surface marker CD33 was used to distinguish the lymphocyte population from the monocyte and granulocyte populations. The cell surface marker CD16 was used to distinguish neutrophil and eosinophil populations from the monocytes and lymphocyte populations. The cell surface marker CD123 was used to distinguish the basophil population. Activated granulocytes were observed using the granulocyte activation surface marker CD63(+). Activated basophil and eosinophil populations were observed using surface markers […], in-tandem with CD63(+). Activated basophils were observed using the surface marker profile of CD63(+)/CD203c(+). Activated eosinophils were observed using the surface marker profile of CD63(+)/CD193(+)/CD203c(+). Activated neutrophils were observed using the surface marker profile of CD63(+)/CD193(−)/CD203(−). Activation of subpopulations was quantified as fold-change compared to the mean of the negative control samples.\nActivation of neutrophils from human blood samples following exposure to exogenous stimulants was investigated using flow cytometry analysis of R123 fluorescence, as well as cell surface markers CD16, CD193, and CD123, and side scattering profiles. Density plots for RH 123 (channel 1; FL1-A), CD16 (channel 2; FL2-A), CD193 (channel 3, FL3-A), and CD123 (channel 4, FL4-A) following exposure to dust mite stimulant for 1.5 hours are shown in FIGS. 19A-19L (DHR 123 only: FIGS. 19A-19D; DHR 123+PMA stimulant: FIGS. 19E-19H; and DHR 123+DM stimulant: FIGS. 19I-19L). […] Histograms of CD16 fluorescence at 1.5 hours after stimulant exposure are shown in FIGS. 20A-20C (DHR 123 control: FIG. 20A, MFI=27956; DHR 123+PMA stimulant: FIG. 20B, MFI=11120; and DHR 123+DM stimulant: FIG. 20C, MFI=16358). […]"}, "basophils": {"system": "basophils", "test": "Basophil activation: RH 123 signal in CD123(+)/CD16(-) gated cells", "excerpt": "Activation of basophils from human blood samples following exposure to exogenous stimulants was investigated using flow cytometry analysis of RH 123 fluorescence, as well as cell surface markers CD16 and CD193, and side scattering profiles. CD123 is a cell surface marker that is expressed on basophils and eosinophils. FIGS. 25A-25C show density plots of CD123 signals at channel 4 (FL4-A) for DHR 123 only (FIG. 25A), DHR 123+PMA stimulant (FIG. 25B), and DHR 123+DM stimulant exposed group (FIG. 25C) following exposure to stimulant for 1.5 hours. FIGS. 25D-25F show corresponding gated RH 123 results (MFI=2055, MFI=6388, and MFI=3023, respectively). FIGS. 26A-26C show density plots of CD123 signals at channel 4 (FL4-A) for DHR 123 control group (FIG. 26A), DHR 123 and dust mite stimulant-exposed group (FIG. 26B), and DHR 123 and ragweed pollen stimulant-exposed group (FIG. 26C) following exposure to stimulant for 2.5 hours. FIGS. 26D-26F show corresponding gated RH 123 results (MFI=1800, MFI=3299, and MFI=1270, respectively).\nBasophil population was selected by having CD123(+)/CD16(−) expression profiles, along with lower side scattering (shown in FIGS. 25A-25C and FIGS. 26A-26C as encircled). In contrast to reducing eosinophil population for different allergen treated groups, basophil population appeared stable over the experiment time period (1.5 hours and 2.5 hours)."}, "[1]": {"conditions": "1-3 hr incubation, DHR 123 and PMA"}},
  "data": [
    {"smiles": "CCCCCCCCCCCCCC(=O)O[C@@H]1[C@@H](C)[C@@]2(O)[C@@H](C=C(CO)C[C@]3(O)C(=O)C(C)=C[C@@H]23)[C@@H]2C(C)(C)[C@]12OC(C)=O", "note": "[PMA, Phorbol-12-Myristate-13-Acetate]", "values": [
      {"measurement": "MFI (2.5 h) FL3-A", "setting": "white blood cells; PMA or DM 2 μL/100 μL blood (Table 4)", "value": "17,902.33"},
      {"measurement": "Mean FL3-A (2.5 h)", "setting": "white blood cells; PMA, RWP1 2.5 μL, MLK, CUC, BAS 5 μL per 100 μL blood (Table 6)", "value": "34,645.62"},
      {"measurement": "MFI (2.5 h) FL3-A", "setting": "white blood cells; increased stimulant, 8 μL DM or RWP per 100 μL blood (Table 7)", "value": "11,914.00"},
      {"measurement": "CD16 fluorescence signal intensity over time", "setting": "neutrophils; [1]", "value": "decreased signal intensity over time"},
      {"measurement": "expression of CD16 surface marker (in words)", "setting": "neutrophils; 1.5 hours after stimulant exposure", "value": "greatly reduced"},
      {"measurement": "mean fluorescent intensity (MFI) of CD16 surface marker (channel 2; FL2-A)", "setting": "neutrophils; 1.5 hours exposure, DHR 123 only control MFI=27956", "value": 11120},
      {"measurement": "CD123 signal over incubation time", "setting": "basophils; [1]", "value": "decreased"},
      {"measurement": "gated RH 123 signal MFI, CD123 gated", "setting": "basophils; 1.5 hours exposure, DHR 123 only control MFI=2055", "value": 6388},
      {"measurement": "basophil activation (in words)", "setting": "basophils; RH 123 signal vs DHR 123 only control", "value": "induced the activation of basophils"}
    ]}
  ]
}
